In publication PMC7480105, “Wbox2: A clathrin terminal domain–derived peptide inhibitor of clathrin-mediated endocytosis” (The Journal of Cell Biology, 2020):

Columns and labels:
cytotoxicity = tested on: cytotoxicity; parameters: method as in Rosselli-Murai et al., 2018; conditions: ref Rosselli-Murai et al., 2018; cited from earlier work
SNX9 = SNX9 (Homo sapiens, UniProt Q9Y5X1); test: Isothermal titration calorimetry with SNX9; format: binding; conditions: ITC, 1.8 mM peptide injected into 50 µM SNX9
Chain of SNX9 (Q9Y5X1 whole entry, species assumed): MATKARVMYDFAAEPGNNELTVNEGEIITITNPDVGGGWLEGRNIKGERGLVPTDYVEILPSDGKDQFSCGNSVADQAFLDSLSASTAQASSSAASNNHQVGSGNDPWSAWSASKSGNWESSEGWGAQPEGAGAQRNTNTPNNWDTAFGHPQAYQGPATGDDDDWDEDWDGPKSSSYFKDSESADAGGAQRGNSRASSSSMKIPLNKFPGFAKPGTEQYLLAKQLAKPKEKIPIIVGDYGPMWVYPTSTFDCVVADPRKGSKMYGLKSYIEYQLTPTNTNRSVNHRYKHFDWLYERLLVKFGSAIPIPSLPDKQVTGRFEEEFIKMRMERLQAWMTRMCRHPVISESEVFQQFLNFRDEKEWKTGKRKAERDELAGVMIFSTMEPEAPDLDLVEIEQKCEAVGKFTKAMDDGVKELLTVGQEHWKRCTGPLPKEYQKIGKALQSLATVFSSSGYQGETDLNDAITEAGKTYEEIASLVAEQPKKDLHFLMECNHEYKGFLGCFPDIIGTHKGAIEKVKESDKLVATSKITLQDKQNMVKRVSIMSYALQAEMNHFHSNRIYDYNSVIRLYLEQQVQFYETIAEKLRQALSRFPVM
Text: GUSSI was further used to output the figures presented.

[1] = tested on: TfnR uptake via CME in ARPE/HPV cells; test: TfnR uptake (in-cell ELISA) after peptide preincubation; format: cell-based; conditions: 60-min preincubation at 37°C (Fig. 7 F), TAT at concentrations <100 µM
Method: Peptides encoding the TAT sequence (YGRKKRRQRRR) followed by 10 amino acid sequences covering the four reported binding sites on the clathrin terminal domain (Fig. 7 A) were synthesized by GenScript (Piscataway, NJ) with >95% purity. Peptides were dissolved in dH2O and further diluted in PBS4+ (1× PBS buffer plus 0.2% BSA, 1 mM CaCl2, 1 mM MgCl2, and 5 mM D-glucose) or cell culture medium (for imaging) when applied to cells. Peptide solutions were stored at −20°C.
Internalization of TfnR, CD44, CD59, and Biotin-Tfn was quantified by in-cell ELISA following established protocols ([Conner and Schmid, 2003]; [Srinivasan et al., 2018]). Cells were seeded in 96-well plates (Costar) at 60–70% confluence and grown overnight. Before the assay, cells were starved for 30 min in PBS4+ at 37°C or treated with peptides in PBS4+ at 37°C for the indicated times. After starvation, cells were moved to 4°C, and culture medium was replaced with cold PBS4+ containing 5 µg/ml HTR-D65 (anti-TfnR mAb; [Schmid and Smythe, 1991]), anti-human CD44 or anti-human CD59 (BD PharMingen) or 5 µg/ml Biotin-Tfn (Sigma-Aldrich). For single-round assays, the above reagents were kept with cells for 20 min at 4°C and then washed out before uptake assay. For multiround assays, the above reagents were kept with cells throughout the uptake process. In parallel, some cells were kept at 4°C for the measurement of surface-bound ligands and blank controls, and some were incubated in a 37°C water bath for the indicated times. Acid wash (0.2 M acetic acid and 0.2 M NaCl, pH 2.3) was used to remove surface-bound antibodies, followed by washing with cold PBS. All were fixed with 4% PFA (Electron Microscopy Sciences) in PBS for 30 min at 37°C. 0.1% Triton X-100 was added for 6.5 min to permeabilize cells, followed by addition of blocking buffer. HTR-D65–, CD44-, and CD59-treated cells were blocked with Q-PBS (PBS, 2% BSA, 0.1% lysine, and 0.01% saponin, pH 7.4), and Biotin-Tfn–treated cells were blocked with 2% casein. Surface-bound and internalized HTR-D65, CD44, and CD59 were probed with goat anti-mouse antibody conjugated with HRP (Sigma-Aldrich), and Biotin-Tfn was probed with Streptavidin-POD conjugate (Sigma-Aldrich). Color was developed using o-phenylenediamine dihydrochloride (OPD) solution (Sigma-Aldrich), and absorbance was read at 490 nm (Biotek Synergy H1 Hybrid Reader). Cell number variation among wells was accounted for by bicinchoninic acid assay reading at 562 nm.

TD–AP2 interactions = test: GST-TD (1–580) pulldown of AP2 from mouse brain extract; format: biochemical; conditions: increasing peptide concentrations, overnight at 4°C, Western blot, three independent runs (Fig. 9 B, C)
Method: A mouse brain was homogenized using a Dounce tissue grinder (Sartorius) in 1 ml MES buffer (100 mM Mes, 1 mM EGTA, 0.5 mM MgCl2, and 0.1 mM PMSF, pH 6.4). After spinning at 5,000 g and 4°C for 3 min, the supernatant was ultracentrifuged at 110,000 g for 60 min. The resulting pellet was then resuspended in extraction buffer (3 vol of 1 M Tris, pH 8, 1 vol Mes buffer, with added PMSF and DTT to 0.1 mM each) for 30 min at room temperature. The resuspended solution was ultracentrifuged at 110,000 g for 60 min to collect supernatant containing released coat proteins. The brain extract buffer was exchanged to pulldown reaction buffer (50 mM Tris, 150 mM NaCl, and 0.1 mM EGTA, pH 7.5) using zeba spin desalting columns (Thermo Fisher Scientific).
In the pulldown assay, 75 µg GST-TD (residues 1–580) in reaction buffer was mixed with coat protein fractions (10% of total extract from a mouse brain) and the indicated concentrations of peptides. The mixture was incubated with 50 µl of a 50% slurry of glutathione Sepharose 4B beads (ABT) and left to rotate overnight at 4°C. Subsequently, beads were collected by spinning down at 1,000 g for 2 min and washed twice with reaction buffer. The beads were resuspended in Laemmli sample buffer and denatured at 95°C before running on 7.5% SDS-PAGE and Western blotting.

Substance	cytotoxic concentration relative to CME-inhibitory concentration (cytotoxicity)	interaction with SNX9 compared with Wbox2 (SNX9)	inhibitory activity on TfnR uptake, concentration curve [1]	inhibition of AP2 pulldown by GST-TD (TD–AP2 interactions)
pitstop	cytotoxic at concentrations only approximately twofold higher			
YGRKKRRQRRR [TAT, arginine-rich TAT peptide, negative control, reference compound]		much weaker interactions	did not inhibit	much weaker inhibition
